Two molecules from ChEMBL document CHEMBL1155125 (Bioorg Med Chem Lett, 2008) can be followed below.

Assay [1] deals with Cystic fibrosis transmembrane conductance regulator (Homo sapiens), P13569 [F508del]. The experiment in a line: Agonist activity at CFTR-deltaF508 mutant expressed in NIH3T3 cells assessed as increase in forskolin-stimulated current at 20 uM by whole cell assay relative to control. Type of assay: functional, cell-based.
Assay [2] addresses Cystic fibrosis transmembrane conductance regulator (Homo sapiens, UniProt P13569, F508DEL). The experiment in a line: Agonist activity at CFTR-deltaF508 mutant expressed in NIH3T3 cells assessed as increase in forskolin-stimulated current. Type of assay: functional, cell-based.
In assay [3] the test system is Cystic fibrosis transmembrane conductance regulator (Homo sapiens), P13569 [F508del]. The experiment in a line: Agonist activity at CFTR-deltaF508 mutant expressed in NIH3T3 cells assessed as increase in forskolin-stimulated current at 30 uM by whole cell assay relative to control. Type of assay: functional, cell-based.
Assay [4] has the same test system. Nature of the assay: Agonist activity at CFTR-deltaF508 mutant expressed in NIH3T3 cells assessed as increase in forskolin-stimulated current at 30 uM by whole cell assay relative to genistein. Type of assay: functional, cell-based.
Assay [5] concerns Cystic fibrosis transmembrane conductance regulator (Homo sapiens), P13569 [K1250A]. The experiment in a line: Agonist activity at CFTR-K1250A mutant assessed as increase in forskolin-stimulated current at 5 uM. The format is functional.
Cystic fibrosis transmembrane conductance regulator (Homo sapiens), P13569 [K1250A], sequence (P13569 whole entry K1250A): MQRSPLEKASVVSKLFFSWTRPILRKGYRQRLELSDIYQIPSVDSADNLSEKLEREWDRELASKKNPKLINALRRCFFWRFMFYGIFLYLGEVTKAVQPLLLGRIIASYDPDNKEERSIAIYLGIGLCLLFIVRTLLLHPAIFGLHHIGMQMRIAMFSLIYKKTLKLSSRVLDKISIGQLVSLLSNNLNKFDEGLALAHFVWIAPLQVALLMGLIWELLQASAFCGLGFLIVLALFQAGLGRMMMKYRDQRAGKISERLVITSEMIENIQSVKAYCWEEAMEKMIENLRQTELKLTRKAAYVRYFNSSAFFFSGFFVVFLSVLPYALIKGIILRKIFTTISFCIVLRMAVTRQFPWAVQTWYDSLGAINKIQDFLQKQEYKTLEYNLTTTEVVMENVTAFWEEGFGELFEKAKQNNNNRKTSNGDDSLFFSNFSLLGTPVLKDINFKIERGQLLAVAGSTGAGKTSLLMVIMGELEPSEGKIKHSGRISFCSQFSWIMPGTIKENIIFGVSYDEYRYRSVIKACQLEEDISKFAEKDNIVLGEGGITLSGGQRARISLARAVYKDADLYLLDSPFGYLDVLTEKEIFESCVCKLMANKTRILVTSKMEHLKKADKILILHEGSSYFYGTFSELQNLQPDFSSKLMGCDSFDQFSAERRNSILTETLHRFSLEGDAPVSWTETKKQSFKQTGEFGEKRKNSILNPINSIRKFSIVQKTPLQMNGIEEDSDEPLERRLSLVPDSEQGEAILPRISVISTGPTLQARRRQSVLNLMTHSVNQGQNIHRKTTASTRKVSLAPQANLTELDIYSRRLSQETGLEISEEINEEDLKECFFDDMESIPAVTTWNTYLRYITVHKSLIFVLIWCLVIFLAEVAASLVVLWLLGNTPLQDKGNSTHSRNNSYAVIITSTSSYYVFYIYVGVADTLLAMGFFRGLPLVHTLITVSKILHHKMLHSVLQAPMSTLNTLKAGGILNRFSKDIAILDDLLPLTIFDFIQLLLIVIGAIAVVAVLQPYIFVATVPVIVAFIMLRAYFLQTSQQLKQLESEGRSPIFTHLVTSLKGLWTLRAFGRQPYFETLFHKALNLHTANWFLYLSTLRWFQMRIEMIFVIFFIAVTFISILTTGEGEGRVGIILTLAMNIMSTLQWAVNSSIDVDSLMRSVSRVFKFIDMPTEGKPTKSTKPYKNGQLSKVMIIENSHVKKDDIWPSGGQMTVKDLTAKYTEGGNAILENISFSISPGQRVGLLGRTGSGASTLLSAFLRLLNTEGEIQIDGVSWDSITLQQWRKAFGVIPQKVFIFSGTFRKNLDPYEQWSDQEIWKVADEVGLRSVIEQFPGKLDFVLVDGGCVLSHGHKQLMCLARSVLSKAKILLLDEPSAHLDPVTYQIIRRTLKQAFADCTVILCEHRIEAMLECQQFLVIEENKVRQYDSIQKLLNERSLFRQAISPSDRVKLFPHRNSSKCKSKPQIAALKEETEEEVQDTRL

Cystic fibrosis transmembrane conductance regulator (Homo sapiens), P13569 [F508del], sequence (P13569 as listed by the source): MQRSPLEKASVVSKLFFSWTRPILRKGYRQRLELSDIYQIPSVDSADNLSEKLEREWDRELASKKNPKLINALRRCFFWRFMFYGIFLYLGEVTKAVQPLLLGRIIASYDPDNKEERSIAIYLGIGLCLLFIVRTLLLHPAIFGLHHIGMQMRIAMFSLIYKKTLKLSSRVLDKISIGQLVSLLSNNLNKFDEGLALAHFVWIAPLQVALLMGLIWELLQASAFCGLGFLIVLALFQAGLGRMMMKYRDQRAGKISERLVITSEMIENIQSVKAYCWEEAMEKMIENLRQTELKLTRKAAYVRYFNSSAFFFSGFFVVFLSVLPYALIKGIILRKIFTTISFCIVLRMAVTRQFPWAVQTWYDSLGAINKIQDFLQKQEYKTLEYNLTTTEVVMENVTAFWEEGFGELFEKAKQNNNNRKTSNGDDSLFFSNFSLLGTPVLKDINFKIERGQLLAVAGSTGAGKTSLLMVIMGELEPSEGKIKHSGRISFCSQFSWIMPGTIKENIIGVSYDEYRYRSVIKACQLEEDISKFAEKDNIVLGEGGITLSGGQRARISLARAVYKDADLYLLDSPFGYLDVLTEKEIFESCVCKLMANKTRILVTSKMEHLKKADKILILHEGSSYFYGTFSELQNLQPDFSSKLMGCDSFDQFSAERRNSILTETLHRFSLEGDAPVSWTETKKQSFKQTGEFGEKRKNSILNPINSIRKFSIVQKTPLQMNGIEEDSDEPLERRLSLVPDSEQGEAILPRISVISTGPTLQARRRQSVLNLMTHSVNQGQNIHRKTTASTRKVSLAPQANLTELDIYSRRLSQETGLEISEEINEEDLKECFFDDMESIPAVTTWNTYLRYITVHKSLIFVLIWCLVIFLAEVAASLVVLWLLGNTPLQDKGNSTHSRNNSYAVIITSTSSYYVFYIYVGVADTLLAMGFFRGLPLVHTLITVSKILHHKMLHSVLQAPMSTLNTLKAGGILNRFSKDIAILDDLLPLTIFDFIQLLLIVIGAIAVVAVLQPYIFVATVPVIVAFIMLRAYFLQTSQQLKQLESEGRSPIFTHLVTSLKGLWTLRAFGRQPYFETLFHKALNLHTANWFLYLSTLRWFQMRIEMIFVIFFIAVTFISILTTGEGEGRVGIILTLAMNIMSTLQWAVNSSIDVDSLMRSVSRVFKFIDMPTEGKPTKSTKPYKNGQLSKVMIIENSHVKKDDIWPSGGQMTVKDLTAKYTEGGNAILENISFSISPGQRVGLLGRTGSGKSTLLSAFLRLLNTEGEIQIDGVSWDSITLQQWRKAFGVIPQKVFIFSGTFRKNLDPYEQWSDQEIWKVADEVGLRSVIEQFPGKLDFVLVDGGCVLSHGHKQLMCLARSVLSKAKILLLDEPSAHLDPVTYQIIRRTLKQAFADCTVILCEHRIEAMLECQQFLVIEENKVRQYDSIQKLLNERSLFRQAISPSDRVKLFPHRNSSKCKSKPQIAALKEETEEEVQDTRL
Cystic fibrosis transmembrane conductance regulator, sequence (P13569 as listed by the source): as above

For `O=c1c(-c2ccc(O)cc2)coc2cc(O)cc(O)c12`, the fold change (FC) in assay [1] was 8.29.

As to `O=c1cc(-c2ccncc2)oc2c1ccc1ccccc12`, the EC50 (commonly the concentration at which the effect is half-maximal) in assay [2] came to 3.5 µM. Also, the fold change (FC) in assay [3] turned out to be 3.76; in assay [5], 1.11; in assay [1], 3.69. Besides, the Activity in assay [4] amounted to 31%.
